The results in this text go back to ChEMBL document CHEMBL3301361, “Experimental in vitro DMPK and physicochemical data on a set of publicly disclosed compounds”.

SMILES strings stand for the structures.

A short description of this data set: physchem. To be noted: octan-1-ol/water, pH 7.4, LogD7.4.

By logD is commonly meant the decadic logarithm of the distribution of all forms, ionised or not, between an organic phase and buffer at a given pH. A higher logD goes with a more lipophilic compound. Regarding `CCN(CCCOCCOCCc1ccccc1)CCc1ccc(O)c2nc(O)sc12`, the logD amounted to 2.45.

On to `Cc1cc(C)cc(CCOCCS(=O)(=O)NCCNCCc2ccc(O)c3nc(O)sc23)c1`, for which the logD was found to be 2.45.

`CC(C)C(NC(=O)Cn1c(-c2ccc(F)cc2)ncc(NC(=O)OCc2ccccc2)c1=O)C(=O)C(F)(F)F` (stereo not drawn) registered a logD of 2.47.

The molecule `Cc1cc(COC(=O)Nc2ccc(-c3ccccc3)n(CC(=O)NC(C(=O)C(F)(F)F)C(C)C)c2=O)cc(C)n1` (stereo not drawn) registered a logD of 2.38.

Molecule `CC(=O)Nc1cccc(S(=O)(=O)Nc2ccc(-c3ccccc3)n(CC(=O)NC(C(=O)C(F)(F)F)C(C)C)c2=O)c1` (stereo not drawn) yielded a logD of 2.43.

`COc1ccc(CCN2CN=C(SCc3ccc(Cl)cc3)NC2)cc1OC` had a logD of 2.41.

Molecule `Nc1nc(N)nc(-c2cccc(C(F)(F)F)c2)n1` returned a pH-dependent lipophilicity (logD) of 2.4.

Take `Fc1cc2[nH]cnc2cc1Cl`: the logD turned out to be 2.35.

Consider `CC(N)(COP(=O)(O)O)C(=O)O` (stereo not drawn), for which the logD worked out at 2.5. This logD and that of the molecule before are within 0.2 log units of each other.

As to `CCCC(=O)C1(c2ccccc2)CCN(C(=O)[C@@H](Cc2ccc(OC)cc2)NC(=O)[C@@H](N)Cc2cncn2C)CC1`, the logD is 2.51.

As for `Cc1ccc(-n2c(C)cc(C(=O)NS(=O)(=O)c3ccc(C)cc3)c2C)cc1`, the logD is 2.5.

For the molecule `COc1cc(CNc2nc3ccccc3[nH]2)cc(OC)c1OC`, the logD was 2.36. This logD and that of the molecule before are within 0.2 log units of each other.

Take `Cn1cnc2cc(OC(=O)c3ccccc3)cnc21`: the pH-dependent lipophilicity (logD) was determined as 2.4.

The molecule `CC(=O)N1CCOc2nc(OCc3ccccc3)ccc21` came in with a logD of 2.4.

`O=C1CCOc2nc(CCc3ccccc3)ccc21`: the logD came to 2.5.

In turn, `COC(=O)N1CCOc2cc(COc3ccccc3)cnc21` returned a pH-dependent lipophilicity (logD) of 2.5.

`CS(=O)(=O)N1CCOc2cc(COc3ccccc3)cnc21` displayed a logD of 2.4.

Turning to `COc1cc2nnc(C(N)=O)c(Nc3ccc(C)cc3F)c2cc1N1CCN(C)CC1`, the logD stood at 2.36. This logD and that of the molecule before are within 0.2 log units of each other.

In turn, `COc1cc2nnc(C(N)=O)c(Nc3cccc(Cl)c3F)c2cc1N1CCN(C)CC1` displayed a logD of 2.35.

Take `COc1ccccc1N1CCN(Cc2c(Br)c(=O)n(-c3ccccc3)n2C)CC1`: the logD came out at 2.5.

Regarding `COc1cc(F)ccc1-c1cncc(CNC(=O)c2cnccn2)c1`, the logD amounted to 2.5.

`CCCCN(CCNC[C@H](O)c1ccc(O)c2[nH]c(=O)sc12)C(=O)CCOCCc1ccccc1` had a logD of 2.51.

Take `CCOC(=O)c1ccc(COC2CN(c3ccc(C)nn3)C2)cc1`: the logD was 2.5.

In turn, `COc1cccc(C(=O)NCCCOc2cccc3ccc(N)nc23)c1` yielded a logD of 2.46.

Regarding `COc1cc(C(=O)Nc2cc(NC(=O)c3cccc(N(C)C)c3)ccc2C)cc(OC)c1OC`, the logD was 2.54. This logD and that of the molecule before are within 0.2 log units of each other.

Consider `NC(=O)c1ccc(=O)n(Cc2ccc(Cl)cc2Cl)c1`, for which the logD stood at 2.36.

As to `COc1ccc(CN2C(=O)CCC2(C)C(=O)NC2CCCCC2)c(OC)c1` (stereo not drawn), the logD turned out to be 2.38.

Turning to `O=C1Nc2ccc(S(=O)(=O)N3CCC[C@H]3CNc3ccccc3)cc2C1=O`, the logD turned out to be 2.4. This logD and that of the molecule before are within 0.2 log units of each other.

For `CSc1ccc(OCc2ccccc2)c(/C=C/c2ccc(C(=O)O)cn2)c1`, the logD is 2.45. The logD values of the last two molecules are within 0.2 log units of each other.

`O=C(Cc1ccc(O)cc1)c1ccc(O)cc1O`: the logD came to 2.54.

With `CC(Cc1cccc(CNCCc2c(Cl)cccc2Cl)c1)NC[C@H](O)c1ccc(O)c2[nH]c(=O)sc12` (stereo partly drawn), the logD amounted to 2.41.

`CNc1c(Br)cnc2[nH]c(-c3ccc(O)cc3)nc12` came in with a logD of 2.47.

As for `NC(=O)c1cnc2[nH]c(-c3ccc(OCCN4CCCCC4)cc3)nc2c1NCCCNC(=O)C1CCC1`, the logD amounted to 2.48.

`Nc1cc2n[nH]c(=O)n2c2cc(-c3ccco3)ccc12` displayed a logD of 2.48.

Turning to `O=C(Nc1ccc(N2CCOCC2)cn1)c1nnc(Nc2ccccc2F)o1`, the logD amounted to 2.4. The logD values of the last two molecules are within 0.2 log units of each other.

Regarding `O=C(Nc1ccc(Cl)c(Cl)c1)N1CCN(C[C@@H]2CCCN(CC3CC3)C2)CC1`, the logD amounted to 2.54.

On to `Cc1ccc(-c2ccc(N)nn2)cc1NC(=O)c1ccc(OCc2ccccn2)cc1`, for which the logD turned out to be 2.47.

With `Cc1ccc(-c2cn(C)cn2)cc1NC(=O)c1ccc(OCc2ccccn2)cc1`, the logD worked out at 2.54.

`Cc1ccc(-c2cc(C(F)(F)F)n[nH]2)cc1NC(=O)c1ccc(OCc2ccccn2)cc1`: the logD was 2.44.

Turning to `Cn1cncc1-c1c2c(=O)n(CC#CCO)c(=O)n(CC3CC3)c2nn1Cc1ccnc2ccc(Cl)cc12`, the logD stood at 2.55.

`Nc1nc(N)c(-c2ccc(NC(=O)C3CC3)cc2)c(COCc2ccccc2)n1` registered a logD of 2.46.

As to `CCCSc1ncccc1C(=O)N(C)[C@@H]1[C@@H]2CC3C[C@H]1C[C@@](O)(C3)C2`, the log distribution coefficient (logD) came to 2.49. This logD and that of the molecule before are within 0.2 log units of each other.

`CCCSc1ncccc1C(=O)N(C)[C@H]1[C@@H]2CC3C[C@H]1C[C@@](O)(C3)C2`: the logD was determined as 2.48.

`CCCNc1nc(N2CCC[C@@H](CC(=O)O)C2)ccc1C(=O)NC1CCCCC1` registered a logD of 2.33.

The molecule `Cc1cc(Cl)ccc1OC1CCN(C[C@H](O)CNC(=O)c2c[nH]c(=O)c3cc(S(C)(=O)=O)ccc23)CC1` came in with a logD of 2.42. This logD and that of the molecule before are within 0.2 log units of each other.

On to `CC1(O)CN(S(=O)(=O)c2ccc3c(C(=O)NC[C@@H](O)CN4CCC(Oc5ccc(Cl)c(Cl)c5)CC4)c[nH]c(=O)c3c2)C1`, for which the logD was determined as 2.54.

`CS(=O)(=O)c1ccccc1C(=O)NC[C@@H](O)CN1CCC(Oc2ccc(Cl)c(Cl)c2)CC1` yielded a logD of 2.34.

As for `CCCc1cc(OCc2ccccc2)cc(=O)n1Cc1ccc(-c2ccccc2-c2nn[nH]n2)cc1`, the logD came out at 2.4.

The molecule `CN(C)c1ccnc2sc3c(=O)n(-c4ccccc4)cnc3c12` gave a logD of 2.34.

On to `O=C(Cc1ccccc1)Nc1nccs1`, for which the pH-dependent lipophilicity (logD) was 2.5.

In turn, `NC1(C(=O)N[C@@H](CCN2CCCCC2)c2ccc(Cl)cc2)CCN(c2ncnc3[nH]ccc23)CC1` yielded a logD of 2.4.

`CN(C)C(=O)CC(NC(=O)C1(N)CCN(c2ncnc3[nH]ccc23)CC1)c1ccc(Cl)cc1` (stereo not drawn) came in with a logD of 2.4.

In turn, `CC(=O)NCC(NC(=O)C1(N)CCN(c2ncnc3[nH]ccc23)CC1)c1ccc(Cl)cc1` (stereo not drawn) returned a logD of 2.4.

Molecule `NC1(C(=O)NC(CO)c2ccc(Cl)cc2)CCN(c2ncnc3[nH]ccc23)CC1` (stereo not drawn) gave a logD of 2.4.

`CC(NC(=O)C1(N)CCN(c2ncnc3[nH]ccc23)CC1)c1ccc(F)cc1` (stereo not drawn) showed a logD of 2.4.

In turn, `CN1CC=CCC(c2cc3ccccc3o2)C1` (stereo not drawn) returned a logD of 2.47.

Molecule `OCCN1CC=CC[C@H](c2ccc(Cl)c(Cl)c2)C1` yielded a logD of 2.37.

`O=C(CN1C(=O)C(NC(=O)c2cc3cc(Cl)sc3[nH]2)Cc2ccccc21)NO` (stereo not drawn) showed a logD of 2.4.

In turn, `Cc1ccn2c(-c3ccnc(N)n3)c(C)nc2c1` returned a logD of 2.39.

For the molecule `CCOc1ccccc1-c1ccc(-c2nc3ccc(F)cc3c(C(=O)NCCOCCN)c2C)cc1`, the pH-dependent lipophilicity (logD) is 2.46.

`O=C(NCCN1CCCC1)c1ccc(Nc2ncc3cc(-c4ccncc4)ccc3n2)cc1` came in with a logD of 2.39. The logD values of the last two molecules are within 0.2 log units of each other.

In turn, `Cn1c(N)nc(CCc2cccc(-c3cccnc3)c2)cc1=O` showed a pH-dependent lipophilicity (logD) of 2.5.

As for `Nc1nc(CCc2cccc(Br)c2)cc(=O)[nH]1`, the logD was found to be 2.52.

The molecule `Cc1sc(CN2CCNCC2)cc1C(=O)NCC12CC3CC(CC(C3)C1)C2` showed a logD of 2.55.

The molecule `Clc1cccc2[nH]ncc12` displayed a logD of 2.5.

Regarding `Clc1ccc2[nH]ncc2c1`, the logD came to 2.44.

For `Clc1cccc2cn[nH]c12`, the pH-dependent lipophilicity (logD) is 2.33. This logD and that of the molecule before are within 0.2 log units of each other.

Consider `CCOc1ccccc1-c1ccc(-c2nc3ccc(F)cc3c(N[C@H](C)C(=O)O)c2C#N)cc1`, for which the logD amounted to 2.5.

The molecule `COc1ccc2c(C)cc(N[C@H]3CCC[C@H](NCc4ccsc4)C3)nc2c1` gave a logD of 2.46.

`COc1ccc2c(C)cc(N[C@H]3CC[C@H](NCc4cn(C)c5ccccc45)C3)nc2c1` had a logD of 2.53.

As for `COC(=O)c1nc2c(N[C@H](C)CO)nc(SCc3cccc(F)c3F)nc2[nH]c1=O`, the logD worked out at 2.49.

For the molecule `Fc1ccc(-n2cc(C3CCNCC3)c3cc(Cl)ccc32)cc1`, the logD worked out at 2.4. This logD and that of the molecule before are within 0.2 log units of each other.

In turn, `CC(C)C(NC(=O)Cn1c(-c2ccccc2)ccc(NC(=O)OCc2ccncc2)c1=O)C(=O)C(F)(F)F` (stereo not drawn) showed a logD of 2.41.

`Oc1cc(-c2ccccc2)nc2ccccc12` yielded a logD of 2.54.

`COc1ccc(S(=O)(=O)Nc2ccc(-c3ccccc3)n(CC(=O)NC(C(=O)C(F)(F)F)C(C)C)c2=O)cc1` (stereo not drawn) displayed a logD of 2.5.

The molecule `CCNc1ccc(-c2ccccc2)n(CC(=O)NC(C(=O)C(F)(F)F)C(C)C)c1=O` (stereo not drawn) yielded a logD of 2.37.

`CNC(=O)C1(N2CCCCC2=O)CCN(CC[C@H](CN(C)C(=O)c2cc(C#N)cc3ccccc23)c2ccc(Cl)c(Cl)c2)CC1` registered a logD of 2.5.

`CN(C)C(=O)C1(N2CCCCC2=O)CCN(CC[C@H](CN(C)C(=O)c2cc(C#N)cc3ccccc23)c2ccc(Cl)c(Cl)c2)CC1` came in with a logD of 2.52.

`Cc1ccc2c(-c3ccnc4cc(Cl)ccc34)c(C)n(CC(=O)O)c2c1` came in with a pH-dependent lipophilicity (logD) of 2.41. This logD and that of the molecule before are within 0.2 log units of each other.

Molecule `CC(C)c1nnc2ccc(-c3ocnc3-c3cc(F)ccc3F)cn12` showed a logD of 2.44.

As to `COc1ccc2nc(N[C@H]3CCC[C@H](NCc4ccsc4)C3)cc(C)c2c1`, the logD was 2.41.

`CN(CCOc1ccc(C[C@H](Nc2ccccc2C(=O)c2ccccc2)C(=O)O)cc1)c1nc2ccccc2o1` had a logD of 2.47.

The molecule `O=C1C(=O)c2cc([N+](=O)[O-])ccc2-c2ccccc21` registered a logD of 2.42.

The molecule `CC(C)n1c(=O)n(C)c(=O)c2c(C(=O)N3CCS(=O)(=O)C3)c(Cc3ccccc3C(F)(F)F)sc21` displayed a log distribution coefficient (logD) of 2.55.

`Cc1ncc(-c2nc(Nc3ccc(C(=O)N4CC[C@@H](N(C)C)C4)cc3)ncc2F)n1C(C)C` had a logD of 2.36.

In turn, `Cc1ncc(-c2ccnc(Nc3ccc(C(N)=O)cc3)n2)n1C(C)C` returned a logD of 2.39.

Consider `Cc1ncc(-c2ccnc(Nc3ccc(C(=O)N(C)C)cc3)n2)n1C(C)C`, for which the logD was found to be 2.45.

`O=C(c1cccc(Cc2n[nH]c(=O)c3ccccc23)c1)N1CCN(c2ccccn2)CC1` returned a logD of 2.36.

In turn, `Nc1ccc2c(c1)-c1ccccc1C(=O)C2=O` displayed a logD of 2.39. This logD and that of the molecule before are within 0.2 log units of each other.

As for `O=C(c1cc(Cc2n[nH]c(=O)c3ccccc23)ccc1F)N1CCN(c2ccccn2)CC1`, the logD worked out at 2.55.

As for `O=C(NCC1CCCCCC1)c1cc(-c2cccnc2N2CCC(C(=O)O)CC2)ccc1Cl`, the logD came to 2.53.

In turn, `COc1ccccc1-c1coc2cc(O)ccc2c1=O` returned a logD of 2.55.

Consider `c1ccc(-c2nc3ccccc3[nH]2)nc1`, for which the logD came to 2.5.
